From patent US9763974B2, “Galacto-rhamnogalacturonate compositions for the treatment of diseases associated with elevated inducible nitric oxide synthase” (Galectin Therapeutics, Inc., priority 2012, dated 2017)

Tested on: inducible nitric oxide synthase (iNOS) in liver tissue
Assay: iNOS immunostaining and digital morphometry in liver tissue, STAM mouse model of steatohepatitis
Format: in vivo
Conditions: STAM mice
Experimental: The experimental model used in this example is the mouse in which diabetes was induced and a high fat diet was administered, a model that has been called STAM mice. Diabetes is induced immediately following birth with a single injection of streptozotocin and then four weeks later the mice are started on a high fat diet. This is a proven chronic inflammatory model in which the mice consistently develop steatohepatitis with hepatocyte fat accumulation, evidence of hepatocyte toxicity, portal and lobular inflammatory infiltrates, peri-sinusoidal fibrosis, advanced fibrosis with nodule formation, cirrhosis, and ultimately hepatocellular carcinoma in a certain percentage of animals.
GR-MD-02, produced as described in Example 1, was given in a dose of 60 mg/kg twice weekly intravenously for four (4) weeks starting at week 9 after initiation of the model through week 12.
GR-MD-02, produced as described in Example 1, was also given in a dose of 120 mg/kg, 60 mg/kg, 30 mg/kg, 10 mg/kg once weekly intravenously for six weeks at the each of the starting at week six of the model and ending at week 12.

galacto-rhamnogalacturonate [GR-MD-02]
quantification of iNOS immunoreactivity (FIG. 3) (10 mg/kg once weekly intravenously for six weeks): statistically significant reductions
quantification of iNOS immunoreactivity (FIG. 3) (30 mg/kg once weekly intravenously for six weeks): statistically significant reductions
quantification of iNOS immunoreactivity (FIG. 1B) (60 mg/kg twice weekly intravenously for 4 weeks, week 9 through week 12): statistically significant reduction
amount of iNOS detected in liver tissue (FIG. 1A) (60 mg/kg twice weekly intravenously for 4 weeks, week 9 through week 12, vs vehicle-treated control): markedly reduced
amount of iNOS detected in liver tissue (FIG. 2) (10, 30, 60 or 120 mg/kg once weekly intravenously for six weeks, week 6 to week 12, vs vehicle-treated control): reduced
quantification of iNOS immunoreactivity (FIG. 3) (various once weekly intravenous doses (10-120 mg/kg) for six weeks): reduction of iNOS immunoreactivity
